Results on one compound are retold here after PMC7289955, “The Role of Dopamine in the Stimulant Characteristics of Novel Psychoactive Substances (NPS)—Neurobiological and Computational Assessment Using the Case of Desoxypipradrol (2-DPMP)” (Frontiers in Pharmacology, 2020).

Each structure is given as a SMILES string.

In this assay the target is T1, dopamine transporter (DAT) (Rattus norvegicus, UniProt P23977).
T1 construct: gene Slc6a3; native DAT in rat brain sections (nucleus accumbens shell and caudate-putamen)
T1 sequence (P23977 whole entry): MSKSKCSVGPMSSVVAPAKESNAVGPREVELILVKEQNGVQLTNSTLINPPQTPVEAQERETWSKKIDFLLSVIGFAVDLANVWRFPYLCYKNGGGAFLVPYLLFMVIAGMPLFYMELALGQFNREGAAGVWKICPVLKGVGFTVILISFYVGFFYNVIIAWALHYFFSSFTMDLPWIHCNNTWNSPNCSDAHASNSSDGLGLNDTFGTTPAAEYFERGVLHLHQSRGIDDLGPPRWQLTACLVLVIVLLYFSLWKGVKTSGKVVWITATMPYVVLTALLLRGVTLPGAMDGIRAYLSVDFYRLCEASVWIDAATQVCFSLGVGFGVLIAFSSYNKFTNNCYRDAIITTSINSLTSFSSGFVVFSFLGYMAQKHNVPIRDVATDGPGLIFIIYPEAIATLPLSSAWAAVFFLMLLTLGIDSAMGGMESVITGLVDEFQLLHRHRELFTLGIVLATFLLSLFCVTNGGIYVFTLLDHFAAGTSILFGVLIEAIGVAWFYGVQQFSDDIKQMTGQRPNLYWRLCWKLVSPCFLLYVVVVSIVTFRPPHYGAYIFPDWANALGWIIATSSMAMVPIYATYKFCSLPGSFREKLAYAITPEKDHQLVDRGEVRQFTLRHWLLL
Put plainly: […]RTI-121 displacement, quantitative autoradiography on rat brain sections.

On to `c1ccc(C(c2ccccc2)C2CCCCN2)cc1` (stereo not shown) [2-DPMP, 2-diphenylmethylpiperidine], for which the IC50 stood at 565 nM.

The term IC50 denotes the concentration needed to halve the response being measured.
